Structures are written as SMILES. pKd: −log10 of the molar value.

In the test the target is T1, uterine OT receptors (Rattus norvegicus, UniProt P70536).
T1 construct: from tissue; host or cells: uterus of DES-treated rats, crude membranes
T1 sequence (P70536 1-388): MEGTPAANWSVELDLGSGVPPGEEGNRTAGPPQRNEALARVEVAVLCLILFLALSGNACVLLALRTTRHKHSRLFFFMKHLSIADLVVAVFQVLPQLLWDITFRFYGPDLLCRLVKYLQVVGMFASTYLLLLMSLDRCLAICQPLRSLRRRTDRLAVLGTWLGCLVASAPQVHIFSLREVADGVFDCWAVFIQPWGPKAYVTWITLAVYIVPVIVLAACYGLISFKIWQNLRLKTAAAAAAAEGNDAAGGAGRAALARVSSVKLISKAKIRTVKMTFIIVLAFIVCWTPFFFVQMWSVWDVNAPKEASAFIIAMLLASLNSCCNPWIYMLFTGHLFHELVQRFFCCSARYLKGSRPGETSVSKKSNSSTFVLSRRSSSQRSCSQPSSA
The experiment in a line: saturation binding of [^3H]OT, crude membrane preparation of uteri. As to conditions: radioligand Kd from saturation binding assay; uterus. Set-up: species or system rats. The method, then:
The high affinity binding of [^3H] Oxytocin(OT)([tyrosyl, 3,5-[^3H]OT; 30-60 Ci/mmol; New England Nuclear. Boston, MA) to uterine OT receptors was based on an assay^* using a crude membrane preparation of uteri taken from diethylstilbestrol dipropionate (DES)-treated (0.3 mg/kg, ip; 18-24) rats. Competition studies were conducted at equilibrium (60 minutes; 22°C) using 1 nM[^3H]OT in the following assay buffer: 50 mM Tris-HCI, 5 mM MgCl2, and 0.1% BSA, pH 7.4. Nonspecific binding (10% of the total binding) was determined using 1 mM unlabeled OT and the binding reaction was terminated by filtration through glass fiber filters using a cell harvester (model 7019, Skatron, Inc., Sterling, VA).
1985 J. Clin. Endocrinol. Metab. 60:37.

Take `CC[C@H](C)[C@@H]1NC(=O)[C@H](Cc2ccc(O)cc2)NC(=O)[C@@H](N)CSSC[C@@H](C(=O)N2CCC[C@H]2C(=O)N[C@@H](CC(C)C)C(=O)NCC(N)=O)NC(=O)[C@H](CC(N)=O)NC(=O)[C@H](CCC(N)=O)NC1=O` [[^3H]OT]: the pKd (in general, the negative decadic logarithm of the Kd, by convention in mol/L) was 9.15.

These data come from patent EP0486280A2, “Piperidinylcamphorsulfonyl oxytocin antagonists” (MERCK & CO. INC., priority 1990, dated 1992).
